Reference: ChEMBL document CHEMBL4811291, “Discovery of macrocyclic HDACs 1, 2, and 3 selective inhibitors for HIV latency reactivation” (Bioorg Med Chem Lett, 2021)

Assays:
[1] = biological target: T1, Protein deacetylase HDAC6 (Homo sapiens, UniProt Q9UBN7); experiment: Inhibition of HDAC6 (unknown origin)
T1 sequence (Q9UBN7 whole entry): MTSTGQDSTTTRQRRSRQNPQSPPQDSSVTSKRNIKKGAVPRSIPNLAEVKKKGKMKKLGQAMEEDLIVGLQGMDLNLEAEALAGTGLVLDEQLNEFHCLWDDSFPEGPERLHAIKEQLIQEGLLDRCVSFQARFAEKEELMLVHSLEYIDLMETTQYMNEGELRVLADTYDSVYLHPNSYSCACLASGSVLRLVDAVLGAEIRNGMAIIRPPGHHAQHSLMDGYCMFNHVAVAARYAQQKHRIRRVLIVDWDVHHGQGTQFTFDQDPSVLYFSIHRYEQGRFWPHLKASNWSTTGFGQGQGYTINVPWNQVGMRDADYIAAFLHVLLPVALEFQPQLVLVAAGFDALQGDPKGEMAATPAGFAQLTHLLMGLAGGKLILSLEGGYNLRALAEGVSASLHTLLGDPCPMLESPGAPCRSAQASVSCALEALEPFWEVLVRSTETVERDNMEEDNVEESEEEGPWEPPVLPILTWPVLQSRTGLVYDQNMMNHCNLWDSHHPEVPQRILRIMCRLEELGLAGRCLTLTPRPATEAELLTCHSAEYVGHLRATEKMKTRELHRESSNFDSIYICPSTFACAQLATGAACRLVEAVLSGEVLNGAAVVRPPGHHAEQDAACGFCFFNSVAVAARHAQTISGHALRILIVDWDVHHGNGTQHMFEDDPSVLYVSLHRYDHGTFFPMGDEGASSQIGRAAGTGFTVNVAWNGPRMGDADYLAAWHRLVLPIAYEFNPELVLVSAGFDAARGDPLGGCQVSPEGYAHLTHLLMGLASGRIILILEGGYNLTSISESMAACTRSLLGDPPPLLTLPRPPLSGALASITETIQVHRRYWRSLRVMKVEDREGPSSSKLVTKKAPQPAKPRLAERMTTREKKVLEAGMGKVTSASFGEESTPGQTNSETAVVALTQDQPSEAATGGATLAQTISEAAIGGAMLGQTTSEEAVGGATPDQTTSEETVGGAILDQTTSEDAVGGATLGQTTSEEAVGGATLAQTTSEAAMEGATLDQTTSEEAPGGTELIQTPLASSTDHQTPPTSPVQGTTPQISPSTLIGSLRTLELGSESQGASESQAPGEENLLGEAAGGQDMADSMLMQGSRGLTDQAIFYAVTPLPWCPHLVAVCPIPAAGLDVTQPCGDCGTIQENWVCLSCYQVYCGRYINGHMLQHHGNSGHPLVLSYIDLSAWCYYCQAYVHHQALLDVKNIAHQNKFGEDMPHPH

[2] = system: Human immunodeficiency virus; experiment: Reactivation of HIV latency infected in human 2C4 cells in presence of 5 % NHS by luciferase reporter gene assay; type: functional, organism-based
[3] = system: Human immunodeficiency virus; experiment: Reactivation of HIV latency infected in human 2C4 cells in presence of 0.1 % NHS by luciferase reporter gene assay; type: functional, organism-based
Histone deacetylase 8 = biological target: T2, Histone deacetylase 8 (Homo sapiens, UniProt Q9BY41); experiment: Inhibition of HDAC8 (unknown origin)
T2 sequence (Q9BY41 whole entry): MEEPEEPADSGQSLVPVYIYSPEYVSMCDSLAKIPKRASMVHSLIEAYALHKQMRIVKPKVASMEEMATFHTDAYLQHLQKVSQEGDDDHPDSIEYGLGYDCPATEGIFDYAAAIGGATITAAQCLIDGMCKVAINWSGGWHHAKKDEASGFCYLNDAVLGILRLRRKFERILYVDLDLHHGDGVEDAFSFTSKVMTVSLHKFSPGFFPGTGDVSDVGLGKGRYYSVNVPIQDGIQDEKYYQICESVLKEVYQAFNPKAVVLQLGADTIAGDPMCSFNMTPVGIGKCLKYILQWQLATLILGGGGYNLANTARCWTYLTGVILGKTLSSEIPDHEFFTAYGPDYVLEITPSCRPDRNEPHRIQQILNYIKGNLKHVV

Histone deacetylase 2 = Histone deacetylase 2 (Homo sapiens, UniProt Q92769); experiment: Inhibition of HDAC2 (unknown origin)
Histone deacetylase 2, sequence (Q92769 whole entry): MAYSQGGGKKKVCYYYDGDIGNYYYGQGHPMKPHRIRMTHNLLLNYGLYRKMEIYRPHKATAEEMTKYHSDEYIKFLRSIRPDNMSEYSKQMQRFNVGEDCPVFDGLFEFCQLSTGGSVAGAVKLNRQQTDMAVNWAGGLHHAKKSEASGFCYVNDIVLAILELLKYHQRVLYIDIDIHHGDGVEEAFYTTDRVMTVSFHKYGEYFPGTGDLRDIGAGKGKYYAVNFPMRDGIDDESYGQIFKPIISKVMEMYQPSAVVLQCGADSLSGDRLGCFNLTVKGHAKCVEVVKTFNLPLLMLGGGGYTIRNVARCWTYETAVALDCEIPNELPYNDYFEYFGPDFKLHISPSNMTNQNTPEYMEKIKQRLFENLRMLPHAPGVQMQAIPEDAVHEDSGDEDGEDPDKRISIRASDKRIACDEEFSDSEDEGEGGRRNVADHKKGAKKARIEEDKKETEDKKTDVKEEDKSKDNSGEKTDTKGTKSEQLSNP

Histone deacetylase 1 = Histone deacetylase 1 (Homo sapiens, UniProt Q13547); experiment: Inhibition of HDAC1 (unknown origin)
Histone deacetylase 1, sequence (Q13547 whole entry): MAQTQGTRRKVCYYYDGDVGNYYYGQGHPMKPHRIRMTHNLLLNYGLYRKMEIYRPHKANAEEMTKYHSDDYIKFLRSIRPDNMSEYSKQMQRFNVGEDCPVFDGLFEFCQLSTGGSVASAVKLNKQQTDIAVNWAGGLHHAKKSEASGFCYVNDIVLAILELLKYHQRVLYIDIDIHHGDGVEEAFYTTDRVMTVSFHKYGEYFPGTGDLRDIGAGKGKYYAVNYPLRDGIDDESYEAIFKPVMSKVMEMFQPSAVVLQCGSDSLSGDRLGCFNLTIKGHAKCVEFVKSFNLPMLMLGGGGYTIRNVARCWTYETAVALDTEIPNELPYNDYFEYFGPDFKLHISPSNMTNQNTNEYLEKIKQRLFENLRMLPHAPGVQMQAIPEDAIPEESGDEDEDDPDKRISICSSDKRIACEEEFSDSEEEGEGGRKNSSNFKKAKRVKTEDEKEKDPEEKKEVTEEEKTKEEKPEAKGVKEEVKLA

Histone deacetylase 3 = Histone deacetylase 3 (Homo sapiens, UniProt O15379); experiment: Inhibition of HDAC3 (unknown origin)
Histone deacetylase 3, sequence (O15379 whole entry): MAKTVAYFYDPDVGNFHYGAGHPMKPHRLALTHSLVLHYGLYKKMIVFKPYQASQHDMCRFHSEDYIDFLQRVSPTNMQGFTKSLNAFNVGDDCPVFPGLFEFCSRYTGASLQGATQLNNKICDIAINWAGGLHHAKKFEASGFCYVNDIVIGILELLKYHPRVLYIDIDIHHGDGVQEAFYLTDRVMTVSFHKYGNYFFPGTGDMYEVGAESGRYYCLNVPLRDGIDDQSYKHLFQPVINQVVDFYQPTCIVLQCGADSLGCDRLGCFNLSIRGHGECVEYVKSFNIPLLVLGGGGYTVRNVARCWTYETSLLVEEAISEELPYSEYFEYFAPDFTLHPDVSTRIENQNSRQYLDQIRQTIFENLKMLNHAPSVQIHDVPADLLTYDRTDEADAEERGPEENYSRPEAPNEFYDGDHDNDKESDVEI

[4] = AUC in Wistar Han rat at 10 mg/kg, po; type: ADME, organism-based; design: dose 10 mg/kg; details: in vivo
[5] = Oral bioavailability in Wistar Han rat at 10 mg/kg; type: ADME, organism-based; details: in vivo
[6] = Ratio of EC50 for reactivation of HIV latency infected in human 2C4 cells in presence of 5 % NHS by luciferase reporter gene assay to EC50 for reactivation of HIV latency infected in human 2C4 cells in presence of 0.1 % NHS by luciferase reporter gene assay; type: functional, Human immunodeficiency virus
Homo sapiens = organism: Homo sapiens; experiment: Selectivity ratio of IC50 for HDAC8 (unknown origin) to IC50 for HDAC6 (unknown origin)
[7] = Cmax in Wistar Han rat at 10 mg/kg, po; type: ADME, organism-based; design: route oral, dose 10 mg/kg; details: in vivo
[8] = Clearance in Wistar Han rat at 2 mg/kg, iv; type: ADME, organism-based; details: in vivo
[9] = Half life in Wistar Han rat at 2 mg/kg, iv; type: ADME, organism-based; details: in vivo
[10] = Tmax in Wistar Han rat at 10 mg/kg, po; type: ADME, organism-based; details: in vivo
[11] = Clearance in Wistar Han rat at 0.05 mg/kg, iv; type: ADME, organism-based; details: in vivo
[12] = Half life in Wistar Han rat at 0.05 mg/kg, iv; type: ADME, organism-based; details: in vivo
[13] = Plasma concentration in Wistar Han rat at 10 mg/kg, po after 24 hrs; type: ADME, organism-based
[14] = Human immunodeficiency virus 1, 2C4

IC50 [1] [nM] | EC50 [2, 14] [nM] | EC50 [3, 14] [nM] | IC50 (Histone deacetylase 8) [nM] | IC50 (Histone deacetylase 2) [nM] | IC50 (Histone deacetylase 1) [nM] | IC50 (Histone deacetylase 3) [nM] | SMILES | also measured
> 900 | 12000 | > 40000 | > 900 | > 900 |  |  | CCC(=O)CCCCC[C@H](NC(=O)[C@H]1CC12CCN(CC)CC2)c1[nH]c2nc1C(=O)NCCCCCc1cccc-2c1 | 
 | 376 | 351 |  | 3.7 |  |  | CCC(=O)CCCCC[C@H](NC(=O)[C@H]1CC12CCN(C)CC2)c1ncc(-c2ccc3c(c2)C2CCC3C2)[nH]1 (stereo not given in full) | 
858 | 4730 | 5150 | > 900 | 260 | 16 | 56 | CCC(=O)CCCCC[C@@H]1NC(=O)[C@H]2CC23CCN(CCCCCn2c(=O)ccc4cc(ccc42)-c2cnc1o2)CC3 | 
680 |  |  |  |  |  |  | CCC(=O)CCCCC[C@H](NC(=O)C1CN(C)C1)c1ncc(-c2cc3ccccc3nc2OC)[nH]1 | 
5390 | 5090 | 3170 | 21500 | 911 | 216 | 91 | CCC(=O)CCCCC[C@@H]1NC(=O)C2CCN2CCCCCOc2ccccc2-c2cnc1[nH]2 (stereo in doubt; 4) | 
 | 130 |  |  |  |  |  | CCC(=O)CCCCC[C@H](NC(=O)[C@H]1CC12CCN(C)CC2)c1ncc(-c2ccc3c(=O)n(C)ccc3c2)[nH]1 | 
17500 |  |  |  | 1140 | 355 | 188 | CCC(=O)CCCCC[C@@H]1NC(=O)C2CCN2CCCCCCc2ccccc2-c2cnc1[nH]2 (stereo in doubt; 8) | 
> 900 | 1980 | 1790 |  |  |  |  | CCC(=O)CCCCC[C@@H]1NC(=O)[C@H]2CC23CCN(CCCOCCCn2ccc4cc(ccc4c2=O)-c2cnc1[nH]2)CC3 | 
 | 12 | 11 | > 900 |  |  |  | CCC(=O)CCCCC[C@@H]1NC(=O)[C@H]2CC23CCN(CCCCCCCCn2ccc4cc(c(OC)cc4c2=O)-c2cnc1[nH]2)CC3 | AUC [4]: 0.04 µM·h; bioavailability [5]: 2.9%; Ratio EC50 [6]: 1.1; Ratio IC50 (Homo sapiens): > 1000; Cmax [7]: 13 nM; clearance [8]: 96 mL/min/kg; half-life [9]: 1.4 h; Tmax [10]: 3 h
> 900 | > 40000 | > 40000 | > 900 |  |  |  | CCC(=O)CCCCC[C@@H]1NC(=O)[C@H]2CC23CCN(CCCOCCn2ccc4cc(ccc4c2=O)-c2cnc1[nH]2)CC3 | 
 | 165 | 193 |  |  |  |  | CCC(=O)CCCCC[C@H](NC(=O)[C@H]1CC12CCN(CC)CC2)c1[nH]c(-c2ccc(F)cc2)nc1C(N)=O | 
> 900 | 16 | 14 | > 900 |  |  | 0.06 | CCC(=O)CCCCC[C@@H]1NC(=O)[C@H]2CC23CCN(CCCCCCCCn2ccc4cc(ccc4c2=O)-c2cnc1[nH]2)CC3 | clearance [11]: 312 mL/min/kg; Ratio EC50 [6]: 1.1; Ratio IC50 (Homo sapiens): > 1000; half-life [12]: 2.8 h
 |  |  |  |  |  |  | CCC(=O)CCCCC[C@@H]1NC(=O)[C@H]2CCCCN2C(=O)[C@H]([C@@H](C)CC)NC(=O)[C@H](Cc2cn(OC)c3ccccc23)NC1=O | EC50 ([2]; 2c4): 587 nM; EC50 ([3]; 2c4): 125 nM
> 900 | 867 | 844 | > 900 | 49 |  |  | CCC(=O)CCCCC[C@@H]1NC(=O)[C@H]2CC23CCN(CCCCN2C4CCC2c2cc(ccc24)-c2cnc1[nH]2)CC3 (stereo not given in full) | 
> 900 | > 40000 | > 40000 | > 900 |  |  |  | CCC(=O)CCCCC[C@@H]1NC(=O)[C@H]2CC23CCN(CCCCCOc2ccc4cc(ccc4n2)-c2cnc1o2)CC3 | 
5550 | 3020 | 1570 | 8420 | 668 | 218 | 105 | CCC(=O)CCCCC[C@@H]1NC(=O)C2CCN2CCCCCCOc2ccccc2-c2cnc1[nH]2 (stereo in doubt; 6) | 
> 900 | 2880 | 1460 | 90 |  |  |  | CCC(=O)CCCCC[C@H](NC(=O)[C@H]1CC12CCN(CC)CC2)c1[nH]c2nc1C(=O)NCCC/C=C\c1cccc-2c1 | 
 | 19300 | 5240 |  |  |  |  | CCC(=O)CCCCC[C@H](NC(=O)[C@H]1CC12CCN(CC)CC2)c1[nH]c2nc1C(=O)NCCC/C=C/c1cccc-2c1 | 
> 900 | > 40000 | > 40000 | > 900 |  |  |  | CCC(=O)CCCCC[C@@H]1NC(=O)[C@H]2CC23CCN(CCOCCn2ccc4cc(ccc4c2=O)-c2cnc1[nH]2)CC3 | AUC [4]: 0.11 µM·h; concentration at 24 h [13]: 1 nM; bioavailability [5]: 0.15%; Cmax [7]: 62 nM; clearance [8]: 3.9 mL/min/kg; half-life [9]: 3.9 h; Tmax [10]: 0.25 h
> 900 | 76 | 73 | > 900 | 0.86 |  |  | CCC(=O)CCCCC[C@@H]1NC(=O)[C@H]2CC23CCN(C/C=C/CN2C4CCC2c2cc(ccc24)-c2cnc1[nH]2)CC3 (stereo not given in full) | 
 |  |  |  | 8620 | 2560 | 791 | CCC(=O)CCCCC[C@@H]1NC(=O)C2CCN2CCCCCOc2ccccc2-c2cnc1[nH]2 (stereo in doubt; 3) | 
 | 56 | 52 |  | < 1.5 | < 1.5 | < 1.5 | CCC(=O)CCCCC[C@H](NC(=O)[C@H]1CC12CCN(CC)CC2)c1ncc(-c2ccc3c(=O)n(CC)ccc3c2)[nH]1 | 
 | 269 | 294 |  |  |  |  | CCC(=O)CCCCC[C@H](NC(=O)C1CN(C)C1)c1[nH]c(-c2ccccc2)nc1C(N)=O | 
> 900 | 9060 | 6270 | > 900 | 24 |  |  | CCC(=O)CCCCC[C@@H]1NC(=O)[C@H]2CC23CCN(CCCCN2C4CCC2c2c(cccc24)-c2cnc1[nH]2)CC3 (stereo not given in full) | 
9830 |  |  |  | 5950 | 2940 | 1220 | CCC(=O)CCCCC[C@@H]1NC(=O)C2CCN2CCCCCCc2ccccc2-c2cnc1[nH]2 (stereo in doubt; 7) | 
5750 | 2360 | 2470 | 15000 | 249 | 37 | 12 | CCC(=O)CCCCC[C@H](NC(=O)C1CN(C)C1)c1ncc(-c2ccccc2)[nH]1 | 
 |  |  |  | 2830 | 682 | 242 | CCC(=O)CCCCC[C@@H]1NC(=O)C2CCN2CCCCCCOc2ccccc2-c2cnc1[nH]2 (stereo in doubt; 5) | 

SMILES | IC50 [1] [nM] | EC50 [2, 14] [nM] | EC50 [3, 14] [nM] | IC50 (Histone deacetylase 8) [nM] | IC50 (Histone deacetylase 2) [nM] | IC50 (Histone deacetylase 1) [nM] | IC50 (Histone deacetylase 3) [nM] | also measured
CCC(=O)CCCCC[C@@H]1NC(=O)CN(C)CCCCOCCCCn2ccc3cc(ccc3c2=O)-c2cnc1[nH]2 | > 900 | 3510 | 2500 | > 900 |  |  |  | 
